How the values were obtained:
[1] = preoperative Fontan candidates with mild pulmonary hypertension; cited from earlier work
BCRP transporters = biological target: T1, BCRP transporters (Homo sapiens, UniProt Q9UNQ0); assay: Drug-drug interaction, pharmacokinetics of rosuvastatin; type: in vivo; conditions: for Drug-Drug Interaction observed: in vivo
T1 construct: from tissue; host or cells: in vivo: gut, liver canalicular membrane, kidney
T1 sequence (Q9UNQ0 1-655): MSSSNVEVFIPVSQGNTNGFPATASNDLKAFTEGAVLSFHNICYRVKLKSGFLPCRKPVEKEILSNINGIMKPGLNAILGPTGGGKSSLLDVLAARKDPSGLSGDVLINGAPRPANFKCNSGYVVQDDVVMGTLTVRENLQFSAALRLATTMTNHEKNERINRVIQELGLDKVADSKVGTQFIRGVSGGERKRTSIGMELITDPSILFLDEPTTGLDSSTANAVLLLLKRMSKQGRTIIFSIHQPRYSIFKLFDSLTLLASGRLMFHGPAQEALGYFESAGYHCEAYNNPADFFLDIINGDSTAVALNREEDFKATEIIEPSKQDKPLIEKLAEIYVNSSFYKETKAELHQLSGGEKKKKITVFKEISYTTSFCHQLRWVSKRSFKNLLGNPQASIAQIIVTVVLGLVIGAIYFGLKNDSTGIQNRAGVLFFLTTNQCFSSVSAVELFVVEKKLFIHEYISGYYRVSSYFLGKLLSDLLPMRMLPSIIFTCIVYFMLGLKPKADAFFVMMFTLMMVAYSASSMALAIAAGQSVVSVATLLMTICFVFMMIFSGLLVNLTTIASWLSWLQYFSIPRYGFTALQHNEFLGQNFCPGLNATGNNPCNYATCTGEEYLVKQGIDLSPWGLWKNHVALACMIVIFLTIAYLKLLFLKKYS
Excerpt: BCRP is an efflux pump located in the gut, liver canalicular membrane, and kidney, and is exposed to intracellular drug concentrations in the liver and the kidney.

human PXR = biological target: T2, human PXR (Homo sapiens, UniProt O75469); assay: Activation of human PXR; type: cell-based
T2 sequence (O75469 1-434): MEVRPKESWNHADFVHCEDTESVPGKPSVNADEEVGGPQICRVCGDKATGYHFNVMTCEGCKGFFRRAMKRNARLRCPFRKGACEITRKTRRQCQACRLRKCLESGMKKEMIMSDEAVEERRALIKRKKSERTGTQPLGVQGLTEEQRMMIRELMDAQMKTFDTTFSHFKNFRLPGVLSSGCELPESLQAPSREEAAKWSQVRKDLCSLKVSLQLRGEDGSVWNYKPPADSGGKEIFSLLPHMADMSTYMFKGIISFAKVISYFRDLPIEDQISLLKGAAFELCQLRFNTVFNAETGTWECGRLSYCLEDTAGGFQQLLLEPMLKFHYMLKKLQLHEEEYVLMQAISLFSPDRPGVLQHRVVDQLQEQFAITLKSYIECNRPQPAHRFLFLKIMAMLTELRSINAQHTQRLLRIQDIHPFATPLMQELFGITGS
Excerpt: In human hepatocytes, both compounds elicited concentration-dependent increases in CYP3A4 mRNA and enzyme activity.

[2] = cited from earlier work
ET receptors = conditions: cited from earlier work
[3] = patients with PAH; cited from earlier work
[4] = long-term treatment, patient with plastic bronchitis following Fontan; cited from earlier work
[5] = early postoperative phase; cited from earlier work
[6] = Example 1: dose-response (Emax) analysis of hemoglobin change, pooled Phase I studies in healthy volunteers; type: in vivo, human
Excerpt: Hemoglobin measurements were pooled from 3 Phase I clinical studies in healthy volunteers: • Study AC-055-102: Investigation of the PK, PD, safety and tolerability of macitentan in male subjects (the study protocol is described in the following publication: Sidharta et al., Safety, tolerability, pharmacokinetics, and pharmacodynamics of macitentan, an endothelin receptor antagonist, in an ascending multiple-dose study in healthy subjects. J. Clin. Pharmacol. (2013), 53(11), 1131-1138) • Study AC-055-116: Investigation of the PK, PD, safety and tolerability of macitentan in male Japanese subjects (the study protocol is described in the following publication: Yokoyama et al., Tolerability, Safety, Pharmacokinetics, and Pharmacodynamics of Macitentan, a New Endothelin Receptor Antagonist, in Healthy Japanese Male Subjects. Rinsho yakuri/Japanese Journal of Clinical Pharmacology and Therapeutics (2016), 47, 143-150) • Study AC-055-117: Investigation of the PK, PD, safety and tolerability of macitentan in male Korean subjects (the study protocol is described in the following publication: Ahn et al., Pharmacokinetic-pharmacodynamic relationships of macitentan, a new endothelin receptor antagonist, after multiple dosing in healthy Korean subjects, Am. […]
Hemoglobin concentrations measured in the morning of Day 11 of macitentan treatment and at baseline on Day −1 were used in the analysis. […]

[7] = Example 2: Phase 1 safety study of 75 mg qd macitentan in healthy male subjects, with and without up-titration; type: in vivo, human
Experimental: This is a single-sequence, open-label, single-center, Phase 1 study in healthy male subjects. The study assessed the effect of 75 mg qd administration of macitentan. The study includes a screening phase of 21 days before the first macitentan administration, followed by an open-label treatment phase. Randomization was not used and subjects received the same treatment.
29 subjects were enrolled.
Administration of 75 mg qd macitentan started on Day 1. Macitentan was administered every day in the morning between 8:00 and 11:00 with 240 mL of noncarbonated water. One 75-mg macitentan film-coated tablet was thus administered as multiple qd oral doses under fed conditions.
Subjects were planned to take macitentan 75 mg for 15 days. However the study was interrupted on the morning of day 8, i.e. when subjects had received 7 doses of macitentan 75 mg.
Macitentan was administered in an up-titration regimen in the morning between 8:00 and 11:00 with 240 mL of noncarbonated water. One macitentan film-coated tablet (10 mg, 37.5 mg or 75 mg) was administered as multiple qd oral doses under fed conditions on Days 1-9 and Days 11-12, and under fasted conditions on Days 10 and 13. The up-titration regimen consists of 2 qd doses of 10 mg macitentan and 3 qd doses of 37.5 mg macitentan followed by 8 qd doses of 75 mg macitentan. On Days −4, −3, 10 and 13 (i.e., the days when dosing occurred under fasted conditions), no fluid intake apart from the water taken at the time of macitentan administration was allowed from 1 hour before until 1 hour after administration of macitentan.
All reported AEs with onset during the treatment phase were included in the analysis. The effects on cardiovascular variables were evaluated and the following variables were collected: PR (ms), QRS (ms), QT (ms), QTcB (ms), QTcF (ms), heart rate (bpm), and RR. The normal range for vital signs is defined as follows: • Systolic blood pressure: 100-140 mmHg • Diastolic blood pressure: 60-90 mmHg • Pulse rate: 45-90 bpm • Respiratory rate: 8-20 per minute • Body temperature: 35.0° C. to 37.5° C.
An AE is any untoward medical occurrence, i.e., any unfavorable and unintended sign (including an abnormal finding), symptom, or disease temporally associated with the use of macitentan. A treatment-emergent AE is any occurrence that is new in onset or aggravated in severity from the baseline condition. The following are used to assess all AEs: • Related: There is a reasonable causal relationship between macitentan administration and the AE. • Not Related: There is not a reasonable causal relationship between macitentan administration and the AE.
An assessment of AE severity grade was made using the following general categorical descriptors: • Mild: Awareness of symptoms that are easily tolerated, causing minimal discomfort and not interfering with everyday activities. • Moderate: Sufficient discomfort is present to cause interference with normal activity. • Severe: Extreme distress, causing significant impairment of functioning or incapacitation. Prevents normal everyday activities.

[8] = design: key to Frequency observed with macitentan 10 mg: Photophobia: Very common: very common (≥1/10); Common: common (≥1/100 to <1/10); Uncommon: uncommon (≥1/1,000 to <1/100); rare (≥1/10,000 to <1/1,000); very rare (<1/10,000); Not known: not known (cannot be estimated from the available data); conditions: cited from earlier work
[9] = 75 mg qd without up-titration, 6 subjects
[10] = 75 mg qd, healthy male subjects
[11] = up-titration 10/37.5/75 mg qd, 6 subjects

Q: For `CC#CCC(C)[C@H](O)/C=C/[C@@H]1[C@H]2c3cccc(CCCC(=O)O)c3O[C@H]2C[C@H]1O` (mixture of isomers) [beraprost], which “effect on mean pulmonary artery pressure (PAP) and PVR” value [1] is on record?
A: reduces

Q: Which “Drug-Drug Interaction observed” value (BCRP transporters) does the source give for `NS(=O)(=O)Nc1ncnc(OCCOc2ncc(Br)cn2)c1-c1ccc(Br)cc1` [ACT-132577] here?
A: No Drug-Drug Interaction

Q: What about the EC50 (human PXR) of the same compound?
A: 7.2 to 8.7 µM

Q: What about the half-life ([2]; in humans) of the same compound?
A: approximately 48 hours

Q: What about the “plasma concentrations compared with macitentan” value ([2]; in vivo) of the same compound?
A: higher plasma concentrations than macitentan

Q: And the “time of peak plasma concentration after the first dose” value ([2]; metabolite after macitentan administration)?
A: about 30 hours

Q: And the “affinity for the ET receptors compared with parent compound” value (ET receptors)?
A: lower affinity

Q: What does the source list for `COc1ccccc1Oc1c(NS(=O)(=O)c2ccc(C(C)(C)C)cc2)nc(-c2ncccn2)nc1OCCO` [bosentan]?
A: exercise capacity, functional class, health-related quality of life and haemodynamic parameters (including PVR and PAP) [3]: improve; symptoms, aortic oxygen saturation, functional class, exercise capacity, Borg dyspnoea index, mean PAP, pulmonary blood flow and PVR [4]: improved

Q: For `CCCCC[C@H](O)/C=C/[C@@H]1[C@H]2C/C(=C/CCCC(=O)O)O[C@H]2C[C@H]1O` [epoprostenol], which “rebound effect after inhaled nitric oxide (NO) cessation” value [5] is on record?
A: prevent the rebound effect

Q: For `CCCNS(=O)(=O)Nc1ncnc(OCCOc2ncc(Br)cn2)c1-c1ccc(Br)cc1` [macitentan, propylsulfamic acid [5-(4-bromo-phenyl)-6-[2-(5-bromo-pyrimidin-2-yloxy)-ethoxy]-pyrimidin-4-yl]-amide], which “Drug-Drug Interaction observed” value (BCRP transporters) is on record?
A: No Drug-Drug Interaction

Q: And the “effect on the pharmacokinetics of 1 mg rosuvastatin” value (BCRP transporters; macitentan 10 mg per day o.d.)?
A: has not shown any effect

Q: And the EC50 (human PXR)?
A: 1.1 to 1.2 µM

Q: What about the “maximum effect on hemoglobin decrease (Emax)” value ([6]; Day 11 vs baseline Day -1, nonlinear regression) of the same compound?
A: around 1.23 g/dL

Q: What about the “dose at which the effect on hemoglobin decrease plateaus” value ([6]; FIG. 1) of the same compound?
A: 10 mg

Q: What about the “N with Flushing/feeling of warmth/redness of face and/or hands (No titration)” value [7, 9] of the same compound?
A: 4

Q: And the “N with Headache (No titration)” value [7, 9]?
A: 6

Q: And the “N with Photophobia (No titration)” value [7, 9]?
A: 3

Q: What about the “N with Sinusitis/rhinitis/nasal congestion (No titration)” value [7, 9] of the same compound?
A: 5

Q: And the “Severity of AEs (No titration): Photophobia” value [7, 9]?
A: All mild

Q: What about the “Severity of AEs (No titration): Sinusitis/rhinitis/nasal congestion” value [7, 9] of the same compound?
A: All mild

Q: What about the “overall severity of AEs” value [7, 10] of the same compound?
A: mainly mild

Q: And the reduction in hemoglobin [7, 10]?
A: ≤ 2 g/dL

Q: And the “study day from which AEs were reported” value [7, 10]?
A: ≥ 2 days

Q: And the “vital signs, ECG and lab parameters” value [7, 10]?
A: no clinically significant changes

Q: And the “resolution of AEs” value ([7]; Four days after stopping macitentan)?
A: most of the AEs resolved

Q: And the “Duration of AE (With titration): Sinusitis/rhinitis/nasal congestion” value [7, 11]?
A: < 24 h

Q: And the “N with Flushing/feeling of warmth/redness of face and/or hands (With titration)” value [7, 11]?
A: 0

Q: What about the “N with Headache (With titration)” value [7, 11] of the same compound?
A: 6

Q: And the “N with Photophobia (With titration)” value [7, 11]?
A: 0

Q: And the “N with Sinusitis/rhinitis/nasal congestion (With titration)” value [7, 11]?
A: 1

Q: And the “Severity of AEs (With titration): Sinusitis/rhinitis/nasal congestion” value [7, 11]?
A: Mild, less than

Q: And the completion of treatment ([7]; up-titration regimen cohort)?
A: All subjects completed treatment

Q: What about the “tolerability of 75 mg macitentan with up-titration regimen” value ([7]; up-titration vs no up-titration) of the same compound?
A: improved tolerability

Q: And the “steady state is reached” value ([2]; in humans, day of administration)?
A: by the third day

Q: What about the half-life ([2]; in humans) of the same compound?
A: about 16 hours

Q: And the “absorption into the plasma” value ([2]; in vivo)?
A: absorbed slowly

Q: And the “Frequency observed with macitentan 10 mg: Flushing/feeling of warmth/redness of face and/or hands” value [8]?
A: Uncommon (uncommon (≥1/1,000 to <1/100))

Q: What about the “Frequency observed with macitentan 10 mg: Headache” value [8] of the same compound?
A: Very common (very common (≥1/10))

Q: And the “Frequency observed with macitentan 10 mg: Photophobia” value [8]?
A: Not known

Q: What about the “Frequency observed with macitentan 10 mg: Sinusitis/rhinitis/nasal congestion” value [8] of the same compound?
A: Common (common (≥1/100 to <1/10))

Reference: patent publication US20230000865A1, “PHARMACEUTICAL COMPOSITION FOR THE TREATMENT OF PULMONARY VASCULAR DISEASE AND/OR CARDIAC DYSFUNCTION IN FONTAN-PALLIATED PATIENTS” (ACTELION PHARMACEUTICALS LTD, priority 2019, published 2023)
